Assay results as given in the COVID Moonshot data (paper PMC7615835).
Values joined by “and” are separate entries in the source; they are usually repeats but may differ in a detail not shown here. Identical values can stand only once.

The molecules below were run against SARS-CoV-2 Main Protease (SARS-CoV-2) (UniProt P0DTD1).

SMILES | IC50
Clc1scc(CN2CCC(c3ccn[nH]3)CC2)c1Cl | > 99.5 µM
O=C(Cc1cc(Cl)cc(Nc2ncc(Br)cc2O)c1)Nc1cncc2ccccc12 | 3.23 µM
Cc1cc(NC(=O)C2CCOc3ccc(Cl)cc32)ncc1N (stereo not drawn) | > 99.5 µM
COc1c(Cl)cccc1OCCNC(=O)c1cc(=O)[nH]c2ccccc12 | 6.39 µM
O=C(Cc1cc(Cl)cc(Nc2ccc(OC(F)(F)F)cc2Cl)c1)Nc1cncc2ccccc12 | 1.9 µM
CS(=O)(=O)c1ccc(N2CCNCC2)cc1 | > 99.5 µM
O=C(Nc1cncc2ccc(C(F)(F)F)cc12)C1CCOc2ccc(Cl)cc21 (stereo not drawn) | > 99.5 µM
COC(=O)c1cc(/C=c2\s/c(=C(/C#N)C(=O)NC(C)C)n(-c3ccc(OC)c(F)c3)c2=O)oc1C | > 99.5 µM
CN1C(=O)CCc2cc(N(C(=O)c3cnc[nH]3)C(C(=O)NCCc3cccc(F)c3)c3cccnc3)ccc21 (stereo not drawn) | > 99 µM
CC(C)(C)c1ccc(N(C(=O)c2cncs2)C(C(=O)NCCc2cccc(F)c2)c2cccnc2)cc1 (stereo not drawn) | 24.2 µM
O=C(Cc1cc(Cl)cc(Nc2cccc(I)c2)c1)Nc1cncc2ccccc12 | 2.22 µM
CC(NC(=O)c1cc2n(n1)CCO2)(C(=O)Nc1cncc2ccccc12)c1ccc(Cl)c(Cl)c1 (stereo not drawn) | 6.89 µM and 10.5 µM
O=C(NC(c1ccccc1)c1ccccc1)[C@@H]1CN(C(=O)CCl)CCN1S(=O)(=O)c1ccsc1 (stereo in doubt) | 0.635 µM
CS(=O)(=O)Nc1ccc2c(NC(=O)Cc3cccc(Cl)c3)cncc2c1 | 0.882 µM
C=CC(=O)N1CCN(S(=O)(=O)c2cccs2)CC1 | > 99.5 µM
CC(C)(C)c1cnc(N(C(=O)c2ccco2)C(C(=O)NCCc2cccc(F)c2)c2cccnc2)s1 (stereo not drawn) | 3.94 µM
CC1(C(=O)Nc2cncc3cc(S(C)(=O)=O)ccc23)CN(CC(=O)NC2CC2)S(=O)(=O)c2ccc(Cl)cc21 (stereo not drawn) | 0.468 µM
O=C(NCCc1cccc(F)c1)C(c1cccnc1)N(C(=O)c1cocn1)c1cnc(C2CCC2)nc1 (stereo not drawn) | 69.1 µM
O=C(Nc1n[nH]c2ccnc(Br)c12)C1CCOc2ccc(Cl)cc21 (stereo not drawn) | > 99.5 µM
N#CC1(CS(=O)(=O)N2Cc3ccc(Cl)cc3C3(CCN(c4cncc5ccccc45)C3=O)C2)CCC1 (stereo not drawn) | 0.263 µM
Cn1ccc2cncc(NC(=O)Cc3cccc(Cl)c3)c21 | 1.45 µM
CS(=O)(=O)Cc1ccc(N(C(=O)c2cnc[nH]2)C(C(=O)NCCc2cccc(F)c2)c2cccnc2)cc1 (stereo not drawn) | 41.1 µM
C[C@H](Nc1cc(Cl)cc(CC(=O)Nc2cncc3ccccc23)c1)c1ccc([N+](=O)[O-])cc1 (stereo in doubt) | 1.45 µM
N#CC1CN(S(=O)(=O)NCc2ccc(Cl)cc2CC(=O)Nc2cncc3ccccc23)C1 | 0.231 µM

SMILES | IC50
O=C(Cc1cc(Cl)cc(Nc2nc3c(Cl)cccc3s2)c1)Nc1cncc2ccccc12 | 2.11 µM
Cc1cn2nc(NCc3ccc4ncccc4c3)sc2n1 | > 99.5 µM
COc1cc(OC)nc(C#N)n1 | > 99.5 µM
CC(C)S(=O)(=O)c1ccc(N(C(=O)c2cnc[nH]2)C(C(=O)NCCc2cccc(F)c2)c2cccnc2)cc1 (stereo not drawn) | > 99 µM
Cc1ccc2nnc(CNc3ccc4nnc(C(F)(F)F)n4n3)n2c1 | > 99.5 µM
Cc1c(Nc2cc(Cl)cc(CC(=O)Nc3cncc4ccccc34)c2)c(=O)n(-c2ccccc2)n1C | 3.41 µM
Cc1ccncc1NC(=O)N(CCC1CCCCC1)c1cc(Cl)cc(OC(C)C)c1 | 24.6 µM
Cc1cc(C)c(C#N)c(Sc2ncnc3c2nnn3Cc2ccccc2)n1 | 0.649 µM
CCOC(=O)CCCNC(=O)C(c1cccnc1)N(C(=O)c1cocn1)c1ccc(C(C)(C)C)cc1 (stereo not drawn) | 6.24 µM
O=C(Cc1cc(Cl)cc(N2CCN(c3nsc4ccccc34)CC2)c1)Nc1cncc2ccccc12 | 3.34 µM
COC1CCC2OCCN(C(=O)c3ccc4nc[nH]c4c3)C2C1 (stereo not drawn) | > 99.5 µM
CC(CCc1ccco1)NC(=O)Nc1cn(C)c(=O)c2ccccc12 (stereo not drawn) | 44.5 µM
O=C(Cc1cc(Cl)cc(Nc2c(Cl)cncc2Cl)c1)Nc1cncc2ccccc12 | 2.04 µM
CNC(=O)CN1Cc2ccc(Cl)cc2C2(CCN(c3cncc4c3CCCC4)C2=O)C1 (stereo not drawn) | 0.258 µM
O=C(NCCc1cccc(F)c1)C(c1cccnc1)N(C(=O)c1cocn1)c1ccc2ncsc2c1 (stereo not drawn) | 60.5 µM
C=CC(=O)NCC(=O)N(Cc1ccccc1O)C[C@@H]1CCCO1 (stereo in doubt) | > 99.5 µM
COC(=O)c1cc(/C=c2\sc(=C(C#N)C#N)n(-c3cccc(C(F)(F)F)c3)c2=O)oc1C | > 99.5 µM
N#CCNC(=O)CN1Cc2ccc(Cl)cc2C2(CCN(c3cncc4ccccc34)C2=O)C1 (stereo not drawn) | 0.263 µM
Cc1cc(C(F)(F)F)nc2c1c(N)nn2C(=O)Cc1cccc(Cl)c1 | > 99.5 µM
Cn1ncc2cc(N(C(=O)c3cocn3)C(C(=O)NCCc3cccc(F)c3)c3cccnc3)ccc21 (stereo not drawn) | 48 µM
N#CC1(CS(=O)(=O)N2Cc3ccc(Cl)cc3C(C(=O)Nc3cncc4ccccc34)C2)CCOCC1 (stereo not drawn) | 0.0804 µM and 0.0971 µM and 0.17 µM
O=C(CCl)N1CCN(S(=O)(=O)c2ccsc2)[C@H](C(=O)N2CCOCC2)C1 (stereo in doubt) | 2.88 µM
O=C(Cc1cc(Cl)cc(Nc2ccc3ccccc3c2O)c1)Nc1cncc2ccccc12 | 4.1 µM
CS(=O)(=O)CCN1CC(C(=O)Nc2cncc3ccccc23)c2cc(Cl)ccc2C1=O (stereo not drawn) | 0.177 µM
